Reference: article PMC3049593 (British Journal of Cancer, 2011)

Legend:
[1] = system: FGF2-induced vascularisation of AngioSponge; assay: AngioSponge in vivo angiogenesis model (CD31/PECAM-1 staining); parameters: species or system mice; conditions: s.c. daily or twice-weekly, 10 days
Method: Angiogenesis in vivo was evaluated using the Angiosponge model in which subcutaneously implanted, agarose-captured FGF2 gelfoam sterile sponges (Pfizer, West Ryde, Australia) induces vascularisation over a 10-day period responsive to angiogenesis inhibition as determined by the number of vessels with identifiable lumen that stained positive for CD31/PECAM-1, an antigen present specifically on endothelial cells ([McCarty et al, 2002]). PG545 was administered s.c. on the flank distal to the AngioSponge implant. This method was also used to examine five medium-sized primary tumours from each group of Lewis Lung Carcinoma (LL/2)-bearing mice.
Cell lines, cell culture, reagents and compounds
Tumour cell lines were cultured in RPMI1640 or DMEM cell culture medium (Invitrogen, Mt Waverley, Australia), 10% foetal bovine serum (Invitrogen or Hyclone/Quantum Scientific), 100 IU/mL penicillin (Invitrogen), 100 µ g/mL streptomycin (Invitrogen or Sigma-Aldrich, Castle Hill, Australia). […]
staining. For quantification, three independent visual fields (20x magnification) were chosen and positive stained spots or vessels with identifiable lumen were counted.
Angiogenesis inhibition and induction were calculated using the equations: […]

[2] = plasma pharmacokinetics of PG545 (LC-MS/MS) in LL/2 tumour-bearing mice; format: in vivo; conditions: for AUC0−t / Cmax / Tmax / t½: plasma
Method: (Applied Biosystems) preceded by a Spark Symbiosis Direct On-line Solid Phase Extraction system. Briefly, using a deep-well 96-well plate, 100 µL plasma was mixed with 10 µL standard solution (or water for unknowns) plus 10 µL internal standard solution (PG562 at 100 µg/mL (deionised water for double blank)).This was then mixed for at least 1 min (Ratek Platform Shaker) and incubated at room temperature for 20 mins prior to addition of 25 µL SDS solution (10 mg SDS in 1 mL deionised water) + 75 µL CHAPS solution (50 mg CHAPS in 1 mL deionised water) and 50 µL Proteinase K solution (10 mg Proteinase K in 1 mL 5 mM CaCl2). Following a mixing step this was incubated at 37°C for 2.5 hours prior to addition of 250 µL deionised water and placed into the Spark Symbiosis system.
The Tmax and Cmax on each sampling day were determined for each dose level by visual inspection of the mean data. The AUC0-t was calculated using the trapezoidal method and the plasma concentration t½ was estimated based on linear regression of the natural log of the plasma concentration that constituted the terminal phase of the concentration-time

For `CC(C)CCC[C@@H](C)[C@H]1CCC2C3CCC4C[C@@H](O[C@@H]5O[C@H](COS(=O)(=O)[O-])[C@@H](O[C@H]6O[C@H](COS(=O)(=O)[O-])[C@@H](O[C@H]7O[C@H](COS(=O)(=O)[O-])[C@@H](O[C@H]8O[C@H](COS(=O)(=O)[O-])[C@@H](OS(=O)(=O)[O-])[C@H](OS(=O)(=O)[O-])[C@H]8OS(=O)(=O)[O-])[C@H](OS(=O)(=O)[O-])[C@H]7OS(=O)(=O)[O-])[C@H](OS(=O)(=O)[O-])[C@H]6OS(=O)(=O)[O-])[C@H](OS(=O)(=O)[O-])[C@H]5OS(=O)(=O)[O-])CC[C@]4(C)C3CC[C@@]21C.[Na+].[Na+].[Na+].[Na+].[Na+].[Na+].[Na+].[Na+].[Na+].[Na+].[Na+].[Na+].[Na+]` (some centres unmarked) [PG545], the “inhibition of CD31 staining” value [1] was “Significant inhibition of CD31 staining”, the “start of efficacious plasma concentration range” value ([2]; LL/2 model) was roughly 20 µg/mL and the “AUC0−t” value ([2]; week 1, 20 mg kg^−1) was 687 µg·h/mL. For the same compound, the Cmax ([2]; week 1, 20 mg kg^−1) was 23 µg/mL, the Tmax ([2]; week 1, 20 mg kg^−1) was 5 h and the t½ ([2]; week 1, 20 mg kg^−1) was 38 h. For the same compound, the “AUC0−t” value ([2]; week 1, 40 mg kg^−1) was 1713 µg·h/mL, the Cmax ([2]; week 1, 40 mg kg^−1) was 55 µg/mL and the Tmax ([2]; week 1, 40 mg kg^−1) was 3 h. For the same compound, the t½ ([2]; week 1, 40 mg kg^−1) was 32 h, the “AUC0−t” value ([2]; week 1, 60 mg kg^−1) was 2666 µg·h/mL and the Cmax ([2]; week 1, 60 mg kg^−1) was 79 µg/mL. For the same compound, the Tmax ([2]; week 1, 60 mg kg^−1) was 5 h, the t½ ([2]; week 1, 60 mg kg^−1) was 39 h and the “AUC0−t” value ([2]; week 2, 20 mg kg^−1) was 663 µg·h/mL. It also gave a Cmax ([2]; week 2, 20 mg kg^−1) of 27 µg/mL, a Tmax ([2]; week 2, 20 mg kg^−1) of 4 h and a t½ ([2]; week 2, 20 mg kg^−1) of 31 h. For the same compound, the “AUC0−t” value ([2]; week 2, 40 mg kg^−1) was 1781 µg·h/mL, the Cmax ([2]; week 2, 40 mg kg^−1) was 71 µg/mL and the Tmax ([2]; week 2, 40 mg kg^−1) was 4 h. The t½ ([2]; week 2, 40 mg kg^−1) was 28 h, the “AUC0−t” value ([2]; week 2, 60 mg kg^−1) was 3056 µg·h/mL and the Cmax ([2]; week 2, 60 mg kg^−1) was 94 µg/mL. For the same compound, the Tmax ([2]; week 2, 60 mg kg^−1) was 4 h and the t½ ([2]; week 2, 60 mg kg^−1) was 35 h.
